# Laboratory results as given in patent US11427586B2, “1,2,4-oxadiazole derivatives as liver X receptor agonists” (NOVARTIS AG, priority 2019, dated 2022).
# Where two headings read alike, the source gives them in different places.
# What was measured:
# [1] = system: naive Sprague Dawley rats; test: In vivo measurement of lowered meibum melting temperature; design: species or system rat; conditions: for Change of Tm: meibum melting point versus vehicle, 1% suspension eye drops twice a day for fourteen days, rats; for meibum melting temperature (in words): rat eyes, concentration of 1%; for Mean ± SEM of Compound (meibum melting point): rat meibum, DSC peak temperature, 1% suspension as eye drops twice a day for fourteen days, in °C
# Description: In Vivo Measurement of Lowered Meibum Melting Temperature
# For compounds 8 and 57, the lowering of rat meibum melting temperature was measured in naive Sprague Dawley rats. The test animals were administered either vehicle, or a suspension of 1% of compound 8 or 1% of compound 57, as eye drops twice a day for fourteen days. The rat meibum was collected after administration of the compounds and analyzed by differential scanning calorimetry to measure the melting point. The lowering of meibum melting point in rats administered compound 8 or compound 57 was compared to the vehicle.
# Melting properties of meibum were obtained using differential scanning calorimetry thermograms, recorded on a TA Discovery Q5000 (ThermoAnalytical). Samples were sealed in standard 40 μl aluminum pans and subjected to a heat-cool-heat cycle with melting temperatures being recorded on the second heating ramp. The samples were first heated to 150° C. at 30K/min then cooled −30° C. at 30K/min. Next, the sample was heated to 75° C. with an underlying heating rate of 2K/min, a period of modulation of 60 seconds and a temperature amplitude of modulation of 1° C. Dry N2 gas, at a flow rate of 50 mL/min was used to purge the DSC equipment during the measurement. Onset of melting and peak temperatures were recorded with peak temperature quoted as the melting point.
# Results from the assay are shown Table 3 and in FIG. 4. Results were analyzed using an unpaired t test with Welch's correction.
# SCD1 = test: Measurement of SCD1 expression in SZ95-SCD1-HiBit cells (HiBiT assay); format: cell-based; conditions: Homo sapiens; for EC50: read-out: HiBit EC50
# SZ95 sebocytes = test: Sentinel Lipid Assay (SLA), desaturation index in SZ95 sebocytes; format: cell-based; conditions: Homo sapiens, 72 h; for EC50: read-out: SLA EC50
# Method in brief: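 SZ95 human sebocytes on fibronectin-coated plates, dosed 72 h at 37 °C with 1:3 dilutions from 10 μM; lipids extracted with deuterated triglyceride internal standards and quantified by LC-MS/MS (MRM) as 11 sentinel lipids. Desaturation index from elastic-net coefficients, normalized to DMSO; Amax relative to a reference LXR agonist.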
# [2] = 48 h, normalized Amax based on the reference compound Amax of 100%, read-out: HiBit Normalized Amax
# [3] = SZ95-SCD1-HiBit cells, 48 h, SCD1 protein production, luminescence, initial dilution 1:3 in DMSO
# [4] = SZ95-SCD1-HiBit cells, 48 h, compared to reference compound, read-out: HiBit Amax
# [5] = normalized Amax based on the reference compound Amax of 100%, read-out: SLA Normalized Amax
# [6] = SZ95 cells, desaturation index, lowest dose used 4.6 nM
# [7] = SZ95 cells, compared to reference compound, read-out: SLA Amax
# [8] = 48 h, read-out: HiBit Normalized Amax
Structure (SMILES),Change of Tm [1],meibum melting temperature (in words) [1],Mean ± SEM of Compound (meibum melting point) [1],Emax (SCD1; [2]) [%],EC50 (SCD1; [3]) [nM],Emax (SCD1; [4]) [%],Emax (SZ95 sebocytes; [5]) [%],EC50 (SZ95 sebocytes; [6]) [nM],Emax (SZ95 sebocytes; [7]) [%],"Emax (SCD1; 48 h, read-out: HiBit Amax) [%]",EC50 (SCD1; 48 h) [nM],Emax (SCD1; [8]) [%],Emax (SZ95 sebocytes; read-out: SLA Amax) [%],EC50 (SZ95 sebocytes) [nM],Emax (SZ95 sebocytes; read-out: SLA Normalized Amax) [%],EC50 (SCD1; footnote a: initial dilution for the compound 1:100 in assay medium rather than 1:3 in DMSO) [nM]
"CC(C)CS(=O)(=O)c1ccccc1Oc1ccc(-c2noc(CN3C(=O)N(CCN4CCOCC4)C4(CCN(C5CCC5)CC4)C3=O)n2)cc1C(F)(F)F [Compound 8, 8-cyclobutyl-3-((3-(4-(2-(isobutylsulfonyl)phenoxy)-3-(trifluoromethyl)phenyl)-1,2,4-oxadiazol-5-yl)methyl)-1-(2-morpholinoethyl)-1,3,8-triazaspiro[4.5]decane-2,4-dione]",−1.977 ± 0.3731,decrease,28.29 ± 0.2920,120,0.111,114,230,≤ 4.6,221,–,–,–,–,–,–,–
"O=C1N(Cc2nc(-c3ccc(Oc4ccccc4S(=O)(=O)CC4CCCO4)c(C(F)(F)F)c3)no2)C(=O)C2(CCOCC2)N1CCN1CCOCC1 (stereo not drawn) [Compound 56, 1-(2-morpholinoethyl)-3-((3-(4-(2-(((tetrahydrofuran-2-yl)methyl)sulfonyl)phenoxy)-3-(trifluoromethyl)phenyl)-1,2,4-oxadiazol-5-yl)methyl)-8-oxa-1,3-diazaspiro[4.5]decane-2,4-dione]",–,–,–,76.6,1.01,72.8,187,≤ 4.6,180,–,–,–,–,–,–,–
"CC(C)CS(=O)(=O)c1ccccc1Oc1ccc(-c2noc(CN3C(=O)N(CCN4CCOCC4)C(C)(C)C3=O)n2)cc1C(F)(F)F [Compound 57, 3-((3-(4-(2-(isobutylsulfonyl)phenoxy)-3-(trifluoromethyl)phenyl)-1,2,4-oxadiazol-5-yl)methyl)-5,5-dimethyl-1-(2-morpholinoethyl)imidazolidine-2,4-dione]",−2.181 ± 0.3731,decrease,28.08 ± 0.2945,88.4,0.217,84.1,176,≤ 4.6,169,–,–,–,–,–,–,–
"COCCS(=O)(=O)c1ccccc1Oc1ccc(-c2noc(CN3C(=O)N(CCN4CCOCC4)C(C)(C)C3=O)n2)cc1C(F)(F)F [Compound 58, 3-((3-(4-(2-((2-methoxyethyl)sulfonyl)phenoxy)-3-(trifluoromethyl)phenyl)-1,2,4-oxadiazol-5-yl)methyl)-5,5-dimethyl-1-(2-morpholinoethyl)imidazolidine-2,4-dione]",–,–,–,107,0.281,102,167,≤ 4.6,161,–,–,–,–,–,–,–
"COCCN(CCOC)CCS(=O)(=O)c1ccccc1Oc1ccc(-c2noc(CN3C(=O)N(CCN4CCOCC4)C(C)(C)C3=O)n2)cc1C(F)(F)F [Compound 61, 3-((3-(4-(2-((2-(bis(2-methoxyethyl)amino)ethyl)sulfonyl)phenoxy)-3-(trifluoromethyl)phenyl)-1,2,4-oxadiazol-5-yl)methyl)-5,5-dimethyl-1-(2-morpholinoethyl)imidazolidine-2,4-dione]",–,–,–,78.9,9.1,75,178,≤ 4.6,171,–,–,–,–,–,–,–
"CC(COc1ccc(-c2noc(CN3C(=O)N(CCC4CCOCC4)C4(CCN(C5CCC5)CC4)C3=O)n2)cc1C(F)(F)F)(C(F)(F)F)C(F)(F)F [Compound 63, 8-cyclobutyl-1-(2-(tetrahydro-2H-pyran-4-yl)ethyl)-3-((3-(4-(3,3,3-trifluoro-2-methyl-2-(trifluoromethyl)propoxy)-3-(trifluoromethyl)phenyl)-1,2,4-oxadiazol-5-yl)methyl)-1,3,8-triazaspiro[4.5]decane-2,4-dione]",–,–,–,–,–,–,–,–,–,74.6,0.217,78.4,72.2,≤ 4.6,75.2,–
"CC1(C)C(=O)N(Cc2nc(-c3ccc(Oc4ccccc4S(=O)(=O)CC4CCCO4)c(C(F)(F)F)c3)no2)C(=O)N1CCN1CCOCC1 (stereo not drawn) [Compound 64, 5,5-dimethyl-1-(2-morpholinoethyl)-3-((3-(4-(2-(((tetrahydrofuran-2-yl)methyl)sulfonyl)phenoxy)-3-(trifluoromethyl)phenyl)-1,2,4-oxadiazol-5-yl)methyl)imidazolidine-2,4-dione]",–,–,–,–,–,–,–,–,–,97.9,0.063,103,154,≤ 4.6,160,–
"CC1(C)C(=O)N(Cc2nc(-c3ccc(Oc4cnccc4C(F)(F)F)c(C(F)(F)F)c3)no2)C(=O)N1CCN1CCOCC1 [Compound 65, 5,5-dimethyl-1-(2-morpholinoethyl)-3-((3-(3-(trifluoromethyl)-4-((4-(trifluoromethyl)pyridin-3-yl)oxy)phenyl)-1,2,4-oxadiazol-5-yl)methyl)imidazolidine-2,4-dione]",–,–,–,69.8,15.1,66.4,108,≤ 4.6,104,–,–,–,–,–,–,–
"CC1(C)C(=O)N(Cc2nc(-c3ccc(OCCC(F)(F)F)c(C(F)(F)F)c3)no2)C(=O)N1CCN1CCOCC1 [Compound 66, 5,5-dimethyl-1-(2-morpholinoethyl)-3-((3-(3-(trifluoromethyl)-4-(3,3,3-trifluoropropoxy)phenyl)-1,2,4-oxadiazol-5-yl)methyl)imidazolidine-2,4-dione]",–,–,–,82.3,187,78.2,99,21.1,95.1,–,–,–,–,–,–,–
"CC(C)CS(=O)(=O)c1ccccc1Oc1ccc(-c2noc(CN3C(=O)N(CCN4CCOCC4)C4(CCN(C(=O)CCCCC(=O)O)CC4)C3=O)n2)cc1C(F)(F)F [Compound 67, 6-(3-((3-(4-(2-(isobutylsulfonyl)phenoxy)-3-(trifluoromethyl)phenyl)-1,2,4-oxadiazol-5-yl)methyl)-1-(2-morpholinoethyl)-2,4-dioxo-1,3,8-triazaspiro[4.5]decan-8-yl)-6-oxohexanoic acid]",–,–,–,88.9,3.94,84.5,103,≤ 4.6,99.1,–,–,–,–,–,–,–
"CC1(C)NC(=O)N(Cc2nc(-c3ccc(Oc4ccccc4C(F)(F)F)c(C(F)(F)F)c3)no2)C1=O [Compound 71, 5,5-dimethyl-3-((3-(3-(trifluoromethyl)-4-(2-(trifluoromethyl)phenoxy)phenyl)-1,2,4-oxadiazol-5-yl)methyl)imidazolidine-2,4-dione]",–,–,–,68.7,–,65.3,51.9,> 10000,49.8,–,–,–,–,–,–,139
"O=C(O)Cc1cccc(OCCCN(Cc2cccc(C(F)(F)F)c2Cl)CC(c2ccccc2)c2ccccc2)c1 [Reference Compound, 2-(3-(3-((2-chloro-3-(trifluoromethyl)benzyl)(2,2-diphenylethyl)amino)propoxy)phenyl)acetic acid, reference compound]",–,–,–,100,65.4,95.1,100,87.3,96,–,–,–,–,–,–,–
